Experiments:
T47D [1] = test: Antiproliferative activity against human T47D cells assessed as inhibition of cell viability incubated for 3 days by MTT/CTG assay; details: 72 h
MDA-MB-453 = test: Antiproliferative activity against human MDA-MB-453 cells assessed as inhibition of cell viability incubated for 3 days by MTT/CTG assay; details: MDA-MB-453, 72 h
HGC-27 [2] = test: Antiproliferative activity against human HGC-27 cells assessed as inhibition of cell viability incubated for 3 days by MTT/CTG assay; details: HGC-27, 72 h
AGS = test: Antiproliferative activity against human AGS cells assessed as inhibition of cell viability incubated for 3 days by MTT/CTG assay; details: 72 h
LNCaP = test: Antiproliferative activity against human LNCaP cells assessed as inhibition of cell viability incubated for 3 days by MTT/CTG assay; details: 72 h
PC-3 = test: Antiproliferative activity against human PC-3 cells assessed as inhibition of cell viability incubated for 3 days by MTT/CTG assay; details: PC-3, 72 h
Pfeiffer = test: Antiproliferative activity against human Pfeiffer cells assessed as inhibition of cell viability incubated for 3 days by MTT/CTG assay; details: 72 h
[3] = molecular target: Phosphatidylinositol 4,5-bisphosphate 3-kinase catalytic subunit gamma isoform (Homo sapiens, UniProt P48736); test: Inhibition of PI3K-gamma (unknown origin) by kinase selectivity profiling analysis
Phosphatidylinositol 4,5-bisphosphate 3-kinase catalytic subunit gamma isoform, sequence (P48736 whole entry, canonical isoform): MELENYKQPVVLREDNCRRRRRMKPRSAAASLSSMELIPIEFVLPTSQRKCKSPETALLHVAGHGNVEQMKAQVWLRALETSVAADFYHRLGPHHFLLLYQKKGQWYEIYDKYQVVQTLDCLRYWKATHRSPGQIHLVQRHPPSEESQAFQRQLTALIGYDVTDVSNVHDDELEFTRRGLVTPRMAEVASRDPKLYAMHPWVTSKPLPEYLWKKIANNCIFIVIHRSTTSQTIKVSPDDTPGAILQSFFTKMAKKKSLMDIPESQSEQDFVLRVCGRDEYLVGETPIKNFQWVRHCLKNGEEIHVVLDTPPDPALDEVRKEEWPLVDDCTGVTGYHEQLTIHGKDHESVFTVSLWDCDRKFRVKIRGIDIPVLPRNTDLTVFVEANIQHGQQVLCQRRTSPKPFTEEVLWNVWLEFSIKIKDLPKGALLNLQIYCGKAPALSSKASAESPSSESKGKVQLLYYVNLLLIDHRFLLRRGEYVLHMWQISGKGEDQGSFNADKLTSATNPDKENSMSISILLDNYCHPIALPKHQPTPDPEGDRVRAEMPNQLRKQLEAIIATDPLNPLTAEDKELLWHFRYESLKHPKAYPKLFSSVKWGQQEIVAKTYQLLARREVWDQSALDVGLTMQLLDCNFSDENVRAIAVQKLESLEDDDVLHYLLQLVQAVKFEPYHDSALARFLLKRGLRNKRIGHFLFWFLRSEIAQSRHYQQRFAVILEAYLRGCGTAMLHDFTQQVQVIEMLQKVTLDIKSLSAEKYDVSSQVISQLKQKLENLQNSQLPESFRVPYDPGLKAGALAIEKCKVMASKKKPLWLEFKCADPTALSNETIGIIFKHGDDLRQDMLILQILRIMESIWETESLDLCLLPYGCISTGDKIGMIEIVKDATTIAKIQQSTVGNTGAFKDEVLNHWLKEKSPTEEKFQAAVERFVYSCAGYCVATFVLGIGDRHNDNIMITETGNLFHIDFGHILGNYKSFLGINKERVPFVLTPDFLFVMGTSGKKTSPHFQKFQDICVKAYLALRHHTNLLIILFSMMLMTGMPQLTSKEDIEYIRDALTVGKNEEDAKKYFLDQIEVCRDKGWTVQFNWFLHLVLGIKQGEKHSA

T47D [4] = test: Effect on PI3K-alpha mRNA level in human T47D cells at 1 uM incubated for 24 hrs by RT-PCR analysis; type: functional, cell-based
T47D [5] = test: Induction of cell cycle arrest in human T47D cells assessed as accumulation at G2/M phase incubated for 24 hrs by PI staining based flow cytometry; type: functional; details: dose 0.1-10 µM
[6] = Metabolic stability in human plasma at 2 uM measured up to 60 mins by LC-MS/MS analysis; type: ADME, cell-free; details: 1 h
[7] = Metabolic stability in monkey plasma at 2 uM measured up to 60 mins by LC-MS/MS analysis; type: ADME, cell-free, Macaca mulatta; details: rhesus monkey, 1 h
[8] = Metabolic stability in dog plasma at 2 uM measured up to 60 mins by LC-MS/MS analysis; type: ADME, cell-free, Canis lupus familiaris; details: 1 h
[9] = Metabolic stability in rat plasma at 2 uM measured up to 60 mins by LC-MS/MS analysis; type: ADME, cell-free; details: 1 h
[10] = Metabolic stability in mouse plasma at 2 uM measured up to 60 mins by LC-MS/MS analysis; type: ADME, cell-free; details: 1 h
[11] = Metabolic stability in human liver microsomes assessed as half life at 2 uM measured up to 60 mins by LC-MS/MS analysis; type: ADME, Microsome
[12] = Metabolic stability in monkey liver microsomes assessed as half life at 2 uM measured up to 60 mins by LC-MS/MS analysis; type: ADME, Macaca mulatta, Microsome; details: rhesus monkey
[13] = Metabolic stability in dog liver microsomes assessed as half life at 2 uM measured up to 60 mins by LC-MS/MS analysis; type: ADME, Canis lupus familiaris, Microsome
[14] = Metabolic stability in rat liver microsomes assessed as half life at 2 uM measured up to 60 mins by LC-MS/MS analysis; type: ADME, Microsome
[15] = Metabolic stability in mouse liver microsomes assessed as half life at 2 uM measured up to 60 mins by LC-MS/MS analysis; type: ADME, Microsome
[16] = Drug metabolism in human liver microsomes at 2 uM measured up to 60 mins in absence of NADPH by LC-MS/MS analysis; type: ADME, Microsome; details: 1 h
[17] = Drug metabolism in monkey liver microsomes at 2 uM measured up to 60 mins in absence of NADPH by LC-MS/MS analysis; type: ADME, Macaca mulatta, Microsome; details: rhesus monkey, 1 h
[18] = Drug metabolism in dog liver microsomes at 2 uM measured up to 60 mins in absence of NADPH by LC-MS/MS analysis; type: ADME, Canis lupus familiaris, Microsome; details: 1 h
[19] = Drug metabolism in rat liver microsomes at 2 uM measured up to 60 mins in absence of NADPH by LC-MS/MS analysis; type: ADME, Microsome; details: 1 h
[20] = Drug metabolism in mouse liver microsomes at 2 uM measured up to 60 mins in absence of NADPH by LC-MS/MS analysis; type: ADME, Microsome; details: 1 h
[21] = Terminal half life in ICR mouse at 3 mg/kg, iv measured for 24 hrs by LC-MS/MS analysis; type: ADME, organism-based; details: in vivo, read-out: beta t1/2 (converted)
[22] = MRT (0 to t) in ICR mouse at 3 mg/kg, iv measured for 24 hrs by LC-MS/MS analysis; type: ADME, organism-based; details: in vivo
[23] = AUC (0 to t) in ICR mouse at 3 mg/kg, iv measured for 24 hrs by LC-MS/MS analysis; type: ADME, organism-based; details: in vivo
[24] = Cmax in ICR mouse at 30 mg/kg, ip measured for 24 hrs by LC-MS/MS analysis; type: ADME, organism-based; details: in vivo
[25] = Terminal half life in ICR mouse at 30 mg/kg, ip measured for 24 hrs by LC-MS/MS analysis; type: ADME, organism-based; details: in vivo, read-out: beta t1/2
[26] = MRT (0 to t) in ICR mouse at 30 mg/kg, ip measured for 24 hrs by LC-MS/MS analysis; type: ADME, organism-based; details: in vivo
[27] = AUC (0 to t) in ICR mouse at 30 mg/kg, ip measured for 24 hrs by LC-MS/MS analysis; type: ADME, organism-based; details: in vivo
[28] = Oral bioavailability in ICR mouse at 30 mg/kg measured for 24 hrs by LC-MS/MS analysis; type: ADME, organism-based; details: in vivo
[29] = Terminal half life in Sprague-Dawley rat at 1.5 mg/kg, iv measured for 24 hrs by LC-MS/MS analysis; type: ADME, organism-based; details: in vivo, read-out: beta t1/2 (converted)
[30] = MRT (0 to t) in Sprague-Dawley rat at 1.5 mg/kg, iv measured for 24 hrs by LC-MS/MS analysis; type: ADME, organism-based; details: in vivo
[31] = AUC (0 to t) in Sprague-Dawley rat at 1.5 mg/kg, iv measured for 24 hrs by LC-MS/MS analysis; type: ADME, organism-based; details: in vivo
[32] = Cmax in Sprague-Dawley rat at 15 mg/kg, ip measured for 24 hrs by LC-MS/MS analysis; type: ADME, organism-based; details: in vivo
[33] = Terminal half life in Sprague-Dawley rat at 15 mg/kg, ip measured for 24 hrs by LC-MS/MS analysis; type: ADME, organism-based; details: in vivo, read-out: beta t1/2 (converted)
[34] = MRT (0 to t) in Sprague-Dawley rat at 15 mg/kg, ip measured for 24 hrs by LC-MS/MS analysis; type: ADME, organism-based; details: in vivo
[35] = AUC (0 to t) in Sprague-Dawley rat at 15 mg/kg, ip measured for 24 hrs by LC-MS/MS analysis; type: ADME, organism-based; details: in vivo
[36] = Oral bioavailability in Sprague-Dawley rat at 15 mg/kg measured for 24 hrs by LC-MS/MS analysis; type: ADME, organism-based; details: in vivo
HGC-27 [37] = test: Antitumor activity against human HGC-27 cells xenografted in male BALB/c nude mouse model at 30 mg/kg, ip qd treated for 14 days consecutively relative to control; type: functional; details: HGC-27, 336 h, time 14 day, read-out: TGI
HGC-27 [38] = test: Antitumor activity against human HGC-27 cells xenografted in male BALB/c nude mouse model at 60 mg/kg, ip qd treated for 14 days consecutively relative to control; type: functional; details: HGC-27, 336 h, time 14 day, read-out: TGI
[39] = Toxicity in male BALB/c nude mouse model xenografted with human HGC-27 cells assessed as drug tolerance at 30 to 60 mg/kg, ip qd treated for 14 days consecutively; type: organism-based; details: in vivo, 336 h, dose 30-60 mg/kg, time 14 day
[40] = Toxicity in male BALB/c nude mouse model xenografted with human HGC-27 cells assessed as body weight change at 30 to 60 mg/kg, ip qd treated for 14 days consecutively; type: organism-based; details: in vivo, 336 h, dose 30-60 mg/kg, time 14 day
Mus musculus = test: In vivo PROTAC activity at CRBN/PI3K-alpha in human HGC-27 cells xenografted in male BALB/c nude mouse model assessed as PI3K-alpha degradation administered intraperitoneally once daily for 14 days consecutively; type: functional, organism-based; details: dose 30-60 mg/kg, route ip, time 14.0 day
DOHH-2 = test: Antitumor activity against human DOHH-2 cells xenografted in male BALB/c nude mouse model at 30 mg/kg, ip qd treated for 21 days consecutively relative to control; type: functional; details: DOHH-2, 504 h, time 21 day, read-out: TGI
[41] = Toxicity in male BALB/c nude mouse model xenografted with human DOHH-2 cells assessed as drug tolerance at 30 mg/kg, ip qd treated for 21 days consecutively; type: organism-based; details: in vivo, 504 h, time 21 day
[42] = Toxicity in male BALB/c nude mouse model xenografted with human DOHH-2 cells assessed as body weight loss at 30 mg/kg, ip qd treated for 21 days consecutively; type: organism-based; details: in vivo, 504 h, time 21 day
[43] = molecular target: Voltage-gated inwardly rectifying potassium channel KCNH2 (Homo sapiens, UniProt Q12809); test: Inhibition of hERG stably expressed in HEK293 cells by whole-cell patch-clamp technique; type: toxicity, cell-based
Voltage-gated inwardly rectifying potassium channel KCNH2, sequence (Q12809 whole entry): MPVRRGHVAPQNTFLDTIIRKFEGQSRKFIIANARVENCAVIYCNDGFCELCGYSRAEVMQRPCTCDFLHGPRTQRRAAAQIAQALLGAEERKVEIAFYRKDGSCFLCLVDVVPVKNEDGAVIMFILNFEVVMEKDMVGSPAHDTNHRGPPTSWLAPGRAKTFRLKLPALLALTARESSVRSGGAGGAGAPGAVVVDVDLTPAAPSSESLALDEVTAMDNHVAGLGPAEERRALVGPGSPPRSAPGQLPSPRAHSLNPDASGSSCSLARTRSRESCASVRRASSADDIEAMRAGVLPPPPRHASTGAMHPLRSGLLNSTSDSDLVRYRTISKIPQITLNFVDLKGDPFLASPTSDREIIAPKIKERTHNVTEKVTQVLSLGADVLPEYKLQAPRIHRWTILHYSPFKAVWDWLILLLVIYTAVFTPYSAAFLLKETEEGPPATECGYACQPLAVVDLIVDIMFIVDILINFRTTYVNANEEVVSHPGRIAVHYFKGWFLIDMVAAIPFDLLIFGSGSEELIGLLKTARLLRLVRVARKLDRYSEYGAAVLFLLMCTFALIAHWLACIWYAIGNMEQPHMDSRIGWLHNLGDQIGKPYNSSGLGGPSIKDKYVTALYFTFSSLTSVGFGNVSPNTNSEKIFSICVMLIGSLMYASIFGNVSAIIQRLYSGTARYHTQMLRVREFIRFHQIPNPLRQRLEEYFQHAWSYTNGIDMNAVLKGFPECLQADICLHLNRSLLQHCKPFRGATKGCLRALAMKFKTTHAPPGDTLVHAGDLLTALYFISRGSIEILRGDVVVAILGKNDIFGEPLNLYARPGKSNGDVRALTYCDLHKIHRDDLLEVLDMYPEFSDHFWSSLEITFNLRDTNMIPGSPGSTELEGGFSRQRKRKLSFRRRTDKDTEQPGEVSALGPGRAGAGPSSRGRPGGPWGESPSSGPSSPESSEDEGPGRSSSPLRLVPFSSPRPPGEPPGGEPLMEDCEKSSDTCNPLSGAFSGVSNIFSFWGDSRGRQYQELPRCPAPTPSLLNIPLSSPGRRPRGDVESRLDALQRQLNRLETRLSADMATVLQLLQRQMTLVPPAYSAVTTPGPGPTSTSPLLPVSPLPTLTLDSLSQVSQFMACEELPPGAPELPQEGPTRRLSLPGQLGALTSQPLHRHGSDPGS

[44] = Cytotoxicity against human AC16 [Human hybrid] cells; type: toxicity, cell-based
[45] = Toxicity in C57BL/6J mouse administered intraperitoneally for 7 days; details: in vivo, route ip, time 7 day
[46] = Toxicity in C57BL/6J mouse assessed as body weight change at 100 mg/kg, ip treated daily for 7 days; type: organism-based; details: in vivo, 168 h, time 7 day
hERG (KCNH2) = hERG (KCNH2) (Homo sapiens, UniProt Q12809); test: Inhibition of hERG stably expressed in HEK293 cells at 10 uM by whole-cell patch-clamp technique relative to control; type: toxicity, cell-based; details: HEK293 cells stably expressing hERG
hERG (KCNH2), sequence (Q12809 whole entry): as above

`Cc1nc(NC(=O)N2CCC[C@H]2C(N)=O)sc1-c1ccnc(C(C)(C)C(F)(F)F)c1` [ALPELISIB] showed an IC50 (T47D [1]) of 0.36 µM, an IC50 (MDA-MB-453) of 0.77 µM and an IC50 (HGC-27 [2]) of 1.92 µM. The IC50 (AGS) was 0.52 µM, the IC50 (LNCaP) was 15.8 µM and the IC50 (PC-3) was 13.2 µM. The IC50 (Pfeiffer) was greater than 50 µM.

In the case of `COc1ncc(-c2cc(OCCCCCCCCCCCCNc3cccc4c3C(=O)N(C3CCC(=O)NC3=O)C4=O)c3ncnc(C)c3c2)cc1NS(=O)(=O)c1ccc(F)cc1F` (stereo unspecified), the IC50 [3] is reported as greater than 10 µM, the IC50 (T47D [1]) is reported as 0.35 µM and the IC50 (MDA-MB-453) is reported as 1.64 µM. It also gave an IC50 (HGC-27 [2]) of 1.45 µM, an IC50 (AGS) of 0.37 µM and an IC50 (LNCaP) of 3.38 µM. The IC50 (PC-3) was 1.48 µM, the IC50 (Pfeiffer) was 0.69 µM and the Activity (T47D [4]) was “No effect”. The Activity (T47D [5]) was “Dose-dependent-effect”, the Stability [6] was “Stable” and the Stability [7] was “Stable”. The Stability [8] was “Stable”, the Stability [9] was “Stable” and the Stability [10] was “Stable”. It also gave a half-life at 2 µM [11] of 0.578 h, a half-life at 2 µM [12] of 0.542 h and a half-life at 2 µM [13] of 1.12 h. The half-life at 2 µM [14] was 0.762 h, the half-life at 2 µM [15] was 0.377 h and the Drug metabolism [16] was “metabolite_notdetected”. For the same compound, the Drug metabolism [17] was “metabolite_notdetected”, the Drug metabolism [18] was “metabolite_notdetected” and the Drug metabolism [19] was “metabolite_notdetected”. The Drug metabolism [20] was “metabolite_notdetected”, the half-life [21] was 7.88 h and the MRT last at 24 h [22] was 6.69 h. The AUC(0-t) at 24 h [23] was 12700 ng·h/mL, the Cmax [24] was 1420 ng/mL and the half-life [25] was greater than 24 h. It also gave an MRT last at 24 h [26] of 10.7 h, an AUC(0-t) at 24 h [27] of 26300 ng·h/mL and a bioavailability [28] of 20%. For the same compound, the half-life [29] was 2.11 h, the MRT last at 24 h [30] was 1.98 h and the AUC(0-t) at 24 h [31] was 1120 ng·h/mL. For the same compound, the Cmax [32] was 555 ng/mL, the half-life [33] was 4.28 h and the MRT last at 24 h [34] was 6.05 h. The AUC(0-t) at 24 h [35] was 5490 ng·h/mL, the bioavailability [36] was 46.4% and the inhibition in vivo at 30 mg/kg (HGC-27 [37]) was 38.3%. For the same compound, the inhibition in vivo at 60 mg/kg (HGC-27 [38]) was 56.8%, the Activity [39] was “Non-toxic” and the Activity [40] was “Non-toxic”. The Activity (Mus musculus) was “Dose-dependent-effect”, the inhibition in vivo at 30 mg/kg (DOHH-2) was 61.8% and the Activity [41] was “Non-toxic”. For the same compound, the Activity [42] was “Non-toxic”, the IC50 [43] was greater than 10 µM and the IC50 [44] was greater than 50 µM. The MTD at 168 h [45] was greater than 100 mg/kg, the Activity [46] was “Non-toxic” and the inhibition at 10 µM (hERG (KCNH2)) was 10.2%.
